From patent publication US10202373B2, “Heteroaryls and uses thereof” (MILLENNIUM PHARMACEUTICALS, INC., priority 2014, dated 2019) come the findings set out here.

The target in this assay is human VPS34 (Homo sapiens (Human), UniProt Q8NEB9). The assay can be described thus: Human VPS34 enzyme assay (Adapta TR-FRET). It counts as biochemical. The note with it: for inhibition at 1.11 µM: 1 h, inhibition of VPS34 at a 1.11 μM concentration, read-out: Percent Inhibition; for IC50: human VPS34 enzyme assay, IC50 ranges. The procedure:
VPS34 (accession number GB:BC033004) was cloned into pDEST20-Thombin as N-terminal GST tagged fusion proteins using the Gateway system (Invitrogen, catalog#11804-013). The sequences were verified before recombinant protein expression using the Baculovirus Expression System with Gateway® Technology. For expression VPS34 was infected at 1 MOI in SF9 cells and harvested 72 hours post infection. For purification, VPS34 is purified by Glutathione Sepharose 4 Fast Flow (GE Healthcare #17-5132-03) followed by HiTrap Q (GE Healthcare #17-1153-01). Human VPS34 Enzyme Assay Method 100 nL compounds in DMSO are added to wells of a 384 well microtitre plate (Greiner 780076). At room temperature: 5 ul VPS34 reaction buffer (Invitrogen Assay Buffer Q (diluted 1 in 5 with nanopure water) plus 2 mM DTT and 2 mM MnCl2) containing ATP (20 uM, Promega) and 200 uM PI-PS substrate (Invitrogen PV5122) is added followed immediately by 5 ul VPS34 reaction buffer (as above) containing VPS34 (5 nM, Millennium Protein Sciences Group) and the mixture is incubated with shaking at room temperature for 1 hour. Then 5 ul […]-detect mix (as per Invitrogen Adapta Assay kit (PV5009) instructions (contains kinase quench buffer, TR-FRET buffer, Adapta Eu anti-ADP antibody and Alexa Fluor 647 ADP tracer)) is added to quench the reaction. The plates are then incubated for 30 minutes at room temperature with shaking and then read on a BMG PheraStar Plus reader. For the assay methods described above, test compound percent inhibition, at various concentrations, is calculated relative to control (DMSO and EDTA) treated samples. Compound concentration versus percent inhibition curves are fitted to generate IC50 values. One skilled in the art will appreciate that the values generated either as percentage inhibition at a single concentration or IC50 values are subject to experimental variation. […] Additionally, compounds of the invention that inhibit VPS34 are described with the following IC50 ranges: […]
A general note: In TR-FRET formats the signal depends on donor and acceptor labels being close together.

The term inhibition denotes how much of the control response was suppressed. Broadly, the IC50 is the concentration needed to halve the response being measured.

Structures are written as SMILES. Where only a bound is given, the exact number is not on record here.

Sequence of human VPS34 (Q8NEB9 whole entry, the tested form may be a part): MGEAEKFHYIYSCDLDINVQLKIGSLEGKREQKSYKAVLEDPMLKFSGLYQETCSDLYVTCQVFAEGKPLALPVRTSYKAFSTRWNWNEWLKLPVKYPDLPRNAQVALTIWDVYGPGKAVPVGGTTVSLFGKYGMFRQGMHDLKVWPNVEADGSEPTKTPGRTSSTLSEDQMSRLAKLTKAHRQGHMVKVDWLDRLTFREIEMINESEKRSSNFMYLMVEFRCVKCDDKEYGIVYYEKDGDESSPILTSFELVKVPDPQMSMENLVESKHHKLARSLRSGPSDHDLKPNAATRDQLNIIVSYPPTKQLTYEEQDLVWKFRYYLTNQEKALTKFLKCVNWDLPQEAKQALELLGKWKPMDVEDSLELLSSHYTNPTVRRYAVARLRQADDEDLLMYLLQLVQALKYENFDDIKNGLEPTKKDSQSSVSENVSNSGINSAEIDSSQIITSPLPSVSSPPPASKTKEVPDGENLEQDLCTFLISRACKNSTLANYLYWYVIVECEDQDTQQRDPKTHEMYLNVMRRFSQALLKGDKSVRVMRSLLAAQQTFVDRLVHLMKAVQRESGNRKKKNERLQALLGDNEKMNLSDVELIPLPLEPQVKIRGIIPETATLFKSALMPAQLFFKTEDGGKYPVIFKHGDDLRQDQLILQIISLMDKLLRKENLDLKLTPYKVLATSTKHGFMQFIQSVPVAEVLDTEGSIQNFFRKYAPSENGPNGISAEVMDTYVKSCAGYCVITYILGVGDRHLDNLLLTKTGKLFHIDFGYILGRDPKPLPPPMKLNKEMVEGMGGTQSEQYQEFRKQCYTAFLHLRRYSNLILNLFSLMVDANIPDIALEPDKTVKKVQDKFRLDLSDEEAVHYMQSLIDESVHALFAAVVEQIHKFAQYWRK

For `COC(=O)Nc1cc(-c2cncc3c2ccn3S(C)(=O)=O)ccn1` [Compound I-29, methyl {4-[1-(methylsulfonyl)-1H-pyrrolo[2,3-c]pyridin-4-yl]pyridin-2-yl}carbamate], the inhibition at 1.11 µM was above 99% and the IC50 lay in the range of 0.01 to 0.05 µM.

For `COC(=O)Nc1cc(-c2cncc3c2ccn3S(=O)(=O)C2CC2)ccn1` [Compound I-30, methyl {4-[1-(cyclopropylsulfonyl)-1H-pyrrolo[2,3-c]pyridin-4-yl]pyridin-2-yl}carbamate], the inhibition at 1.11 µM was 99% and the IC50 was 0.01 to 0.05 µM.

Take `CC(=O)Nc1cc(-c2cncc3c2cc(C)n3S(=O)(=O)c2ccccc2)ccn1` [Compound I-31, N-{4-[2-methyl-1-(phenylsulfonyl)-1H-pyrrolo[2,3-c]pyridin-4-yl]pyridin-2-yl}acetamide]: the inhibition at 1.11 µM is above 99% and the IC50 fell in the range of 0.01 to 0.05 µM.

In the case of `CS(=O)(=O)n1ccc2c(-c3ccnc(N)c3)cncc21` [Compound I-32, 4-[1-(methylsulfonyl)-1H-pyrrolo[2,3-c]pyridin-4-yl]pyridin-2-amine], the inhibition at 1.11 µM is 30% and the IC50 is above 0.1 µM.

Regarding `CC(=O)Nc1cc(-c2cncc3c2ccn3S(=O)(=O)N(C)C)ccn1` [Compound I-33, N-{4-[1-(dimethylsulfamoyl)-1H-pyrrolo[2,3-c]pyridin-4-yl]pyridin-2-yl}acetamide], the inhibition at 1.11 µM is above 99% and the IC50 was below 0.01 µM.

Regarding `CC(=O)Nc1cc(-c2cnc(C)c3c2ccn3S(=O)(=O)c2ccccc2C)ccn1` [Compound I-34, N-(4-{7-methyl-1-[(2-methylphenyl)sulfonyl]-1H-pyrrolo[2,3-c]pyridin-4-yl}pyridin-2-yl)acetamide], the inhibition at 1.11 µM was above 99% and the IC50 was 0.01 to 0.05 µM.

In the case of `CC(=O)Nc1cc(-c2cnc(C)c3c2ccn3CC2CC2)ccn1` [Compound I-36, N-{4-[1-(cyclopropylmethyl)-7-methyl-1H-pyrrolo[2,3-c]pyridin-4-yl]pyridin-2-yl}acetamide], the inhibition at 1.11 µM was determined as 79% and the IC50 is above 0.1 µM.

Regarding `CC(=O)Nc1cc(-c2cncc3c2ccn3S(=O)(=O)C2CC2)ccn1` [Compound I-37, N-{4-[1-(cyclopropylsulfonyl)-1H-pyrrolo[2,3-c]pyridin-4-yl]pyridin-2-yl}acetamide], the inhibition at 1.11 µM is above 99% and the IC50 is below 0.01 µM.

Consider `COC(=O)Nc1cc(-c2cnc(C)c3c2ccn3S(C)(=O)=O)ccn1` [Compound I-38, methyl {4-[7-methyl-1-(methylsulfonyl)-1H-pyrrolo[2,3-c]pyridin-4-yl]pyridin-2-yl}carbamate], for which the inhibition at 1.11 µM turned out to be 99% and the IC50 was in the range of 0.01 to 0.05 µM.

On to `CC(=O)Nc1cc(-c2cncc3c2ccn3S(=O)(=O)c2ccccc2)ccn1` [Compound I-39, N-{4-[1-(phenylsulfonyl)-1H-pyrrolo[2,3-c]pyridin-4-yl]pyridin-2-yl}acetamide], for which the inhibition at 1.11 µM was above 99% and the IC50 was below 0.01 µM.

Take `CC(=O)Nc1cc(-c2cnc(CN)c3c2ccn3S(=O)(=O)C2CC2)ccn1` [Compound I-41, N-{4-[7-(aminomethyl)-1-(cyclopropylsulfonyl)-1H-pyrrolo[2,3-c]pyridin-4-yl]pyridin-2-yl}acetamide]: the inhibition at 1.11 µM was above 99% and the IC50 fell in the range of 0.01 to 0.05 µM.

With `CCOC(=O)Nc1cc(-c2cnc(C)c3c2ccn3S(=O)(=O)C2CC2)ccn1` [Compound I-42, ethyl {4-[1-(cyclopropylsulfonyl)-7-methyl-1H-pyrrolo[2,3-c]pyridin-4-yl]pyridin-2-yl}carbamate], the inhibition at 1.11 µM is above 99% and the IC50 was below 0.01 µM.

Take `COC(=O)Nc1cc(-c2cnc(C)c3c2ccn3S(=O)(=O)C2CC2)ccn1` [Compound I-43, methyl {4-[1-(cyclopropylsulfonyl)-7-methyl-1H-pyrrolo[2,3-c]pyridin-4-yl]pyridin-2-yl}carbamate]: the inhibition at 1.11 µM is above 99% and the IC50 is below 0.01 µM.
